What was measured:
[1] = tested on: tendency to thrombosis in arthritic rat; test: laser-induced tendency to thrombosis in arthritic rats; format: in vivo; conditions: oral 21 days
Experimental: (§1) The hemorheological, antithrombotic, antiaggregatory and antiinflammatory effects of the combinations according to the invention were investigated after oral administration for 21 days in the pathological model of adjuvant arthritis (induced with Mycobacterium butyricum) is the rat by the method of Clincal Hemorheology 3 (1983) 469-480, and were compared with those of the appropriate individual substances. Blood was taken from the thoracic aorta 1 hour after the last administration of substance. All the details of the determination of the hemorheological effect were as described in Clinical Hemorheology 4 (1984) 263-273. The erythocyte deformability was quantitatively determined in a filtrometer (Myrenne MF 4, Roetgen, Germany) by evaluation of the initial gradient of the flow curve.
The antithrombotic effect was measured using the laser model as described above.

[2] = tested on: induced platelet aggregation; test: collagen-induced platelet aggregation in arthritic rats; format: in vivo, rat; conditions: oral 21 days
Experimental: as §1
The measurements of platelet aggregation were carried out as described above in detail. However, instead of arachidonic acid 0.04 mg of collagen was used to induce platelet aggregation in 1 ml of platelet-rich plasma (PA II aggregometer from Myrenne, Roetgen).

[3] = tested on: mucosa of the glandular stomach; test: test of gastric tolerance (ulcerogenic effect); format: in vivo, rat (male Sprague-Dawley); conditions: for Number of animals with ulcers: 10 animals
Experimental: 24 hours after the last medication, the stomach was cut open along the lesser curvature, cleaned under running water, and inspected for mucosal lesions. All lesions visible on macroscopic inspection of the mucosa of the glandular stomach were regarded as ulcers.

[4] = tested on: laser-induced thrombosis in the arterioles and venules of the rat mesentery; test: laser-induced thrombosis in arterioles of the rat mesentery; format: in vivo, rat (female Sprague-Dawley); conditions: for Changes from controls, % / Changes from controls, absolute / Number of shots: single substance
Experimental: The evaluation was carried out by analysis by vital microscopy (Nature, 218 (1968) 887 and Haemostasis 13 (1983) 61 and IRCS Med. Sci. 12 (1984) 91).
The test substances were administered in 0.9% sodium chloride solution (which contained 1% carboxymethylcellulose (Serva, Heidelberg)) either orally, intraperitoneally or intravenously. Control animals were treated in the corresponding manner but without the test substances. The experimental animals used were male or female Sprague-Dawley or Wistar rats.
The animals which were to be investigated underwent s.c. premedication with 0.1 mg of atropine sulfate in solution and were anesthetized with 100 mg of ketamine hydrochloride and 4 mg of xylazine per kg of body weight i.p. The investigation made use of arterioles and venules of the mesentery, which was coated with degassed liquid paraffin, having a diameter of about 13 μm. The beam of a 4 W argon laser (supplied by Spectra Physics, Darmstadt) was introduced coaxially, by means of a beam adaptation and adjustment system (supplied by BTG, Munich), into the inverted optical path of a microscope (ICM 405, LD-Epipland 40/0.60; supplied by Zeiss, Oberkochen). The wavelength used was 514.5 nm, with an energy above the objective of 30.5 mW. The exposure time per single shot was 1/15 sec. All the measuring operations were recorded by video camera (Trinicon tube, Sony, Cologne) and stored in a recorder (Sony, U-matic 3/4"). The test substances were administered in various doses to the experimental animals, orally one hour, and on i.v. administration 10 min., before the start of the experiment, control animals receiving the same amount of placebo.
The number of shots needed to induce a defined thrombus is counted.
The results of the experiment were subjected to statistical analysis using the .chi.^2 test (L. Cavalli-Sforza, Biometrie (Biostatistics), Stuttgart, 1969, pages 49 et seq.). […]

vascular cyclooxygenase = conditions: cited from earlier work
[5] = customary doses; cited from earlier work
rat aortas = conditions: treatment of the rats with acetylsalicylic acid; cited from earlier work
human blood platelets = conditions: cited from earlier work
[6] = tested on: adjuvant arthritis (Mycobacterium butyricum) in the rat; test: antiinflammatory effect in adjuvant arthritis (paw edema, necrosis index); format: in vivo
Experimental: as §1
The antiflammatory effect was quantitatively measured, as quoted above, using the volume of the edema of the paw and using the standard necrosis index.

cyclooxygenase = conditions: cited from earlier work
[7] = tested on: erythrocyte filterability; test: erythrocyte filterability in adjuvant arthritis rats; format: in vivo, rat; conditions: oral 21 days
Experimental: as §1

[8] = Table 1b, 1 mg/kg acetylsalicylic acid without pentoxifylline

In the case of CC(=O)Oc1ccccc1C(=O)O [Acetylsalicylic acid, O-acetylsalicylic acid], the “tendency to thrombosis (number of shots)” value ([1]; 10 mg, healthy = 100%, untreated arthritic 46%) is reported as 47%, the “tendency to thrombosis (number of shots)” value ([1]; 180 mg) is reported as 91% and the induced platelet aggregation ([2]; 10 mg, untreated arthritic = 100%, healthy 0%) is reported as 62%. For the same molecule, the induced platelet aggregation ([2]; 180 mg) was 35%, the “Number of animals with ulcers” value ([3]; acetylsalicylic acid 25 mg/kg oral) was 5 and the “Number of animals with ulcers” value ([3]; acetylsalicylic acid 50 mg/kg oral) was 7. For the same molecule, the “Number of animals with ulcers” value ([3]; acetylsalicylic acid 100 mg/kg oral) was 9, the “Number of animals with ulcers” value ([3]; acetylsalicylic acid 1,25 mg/kg oral) was 1 and the “Number of animals with ulcers” value ([3]; acetylsalicylic acid 12,50 mg/kg oral) was 2. The gastric ulcerogenicity ([3]; acetylsalicylic acid after pretreatment with pentoxifylline) was “unaffected by pretreatment with pentoxifylline”, the “Changes from controls, %” value ([4]; 1 mg/kg oral) was -13% and the “Changes from controls, absolute” value ([4]; 1 mg/kg oral) was -0,35. For the same molecule, the Number of shots ([4]; 1 mg/kg oral) was 1,88, the “Changes from controls, %” value ([4]; 5 mg/kg oral) was -18% and the “Changes from controls, absolute” value ([4]; 5 mg/kg oral) was -0,38. For the same molecule, the Number of shots ([4]; 5 mg/kg oral) was 1,79, the “Changes from controls, %” value ([4]; 10 mg/kg oral) was 35% and the “Changes from controls, absolute” value ([4]; 10 mg/kg oral) was 0,75. The Number of shots ([4]; 10 mg/kg oral) was 2,92, the “Changes from controls, %” value ([4]; 30 mg/kg oral) was 48% and the “Changes from controls, absolute” value ([4]; 30 mg/kg oral) was 1,04. The Number of shots ([4]; 30 mg/kg oral) was 3,21, the “% change from controls” value [4, 8] was -13% and the “-x (number of shots)” value [4, 8] was 1,90. The “effect in laser-induced thrombosis” value ([4]; oral dose 10 mg/kg) was “significant effect”, the “effect in laser-induced thrombosis” value ([4]; single oral dose 5 mg/kg) was “not significant” and the “inhibition of vascular cyclooxygenase” value (vascular cyclooxygenase) was “found only at higher doses”. The undesired side effects [5] was “asthma, allergic urticaria, analgesic nephropathy and peptic ulcers”, the “release of the substance having antiaggregatory activity stimulated by pentoxifylline” value (rat aortas) was “can be suppressed” and the “aggregation of human blood platelets” value (human blood platelets) was “inhibitor of the aggregation”. The “Percentage improvement, necrosis index” value ([6]; 10 mg) was 8%, the “Percentage improvement, volume of paw edema, left paw” value ([6]; 10 mg) was 2% and the “Percentage improvement, volume of paw edema, right paw” value ([6]; 10 mg) was 3%. The “Percentage improvement, necrosis index” value ([6]; 180 mg) was 28%, the “Percentage improvement, volume of paw edema, left paw” value ([6]; 180 mg) was 28% and the “Percentage improvement, volume of paw edema, right paw” value ([6]; 180 mg) was 26%. For the same molecule, the “cyclooxygenase localized in the blood platelets” value (cyclooxygenase) was “inhibits the enzyme cyclooxygenase”, the erythrocyte filterability ([7]; 10 mg, healthy = 100%, untreated arthritic 59%) was 63% and the erythrocyte filterability ([7]; 180 mg) was 68%. For the same molecule, the “erythrocyte filterability in arthritic rats (in words)” value [7] was “can be increased again”.
